Here are results for four molecules from article PMC8888699, “Crystal structure and catalytic mechanism of the MbnBC holoenzyme required for methanobactin biosynthesis” (Cell Research, 2022).

In assay [1] the target is T1, RrMbnBC (Rugamonas rubra, UniProt A0A1I4IFH0+A0A1I4IFL0).
T1 sequence (A0A1I4IFL0 1-277): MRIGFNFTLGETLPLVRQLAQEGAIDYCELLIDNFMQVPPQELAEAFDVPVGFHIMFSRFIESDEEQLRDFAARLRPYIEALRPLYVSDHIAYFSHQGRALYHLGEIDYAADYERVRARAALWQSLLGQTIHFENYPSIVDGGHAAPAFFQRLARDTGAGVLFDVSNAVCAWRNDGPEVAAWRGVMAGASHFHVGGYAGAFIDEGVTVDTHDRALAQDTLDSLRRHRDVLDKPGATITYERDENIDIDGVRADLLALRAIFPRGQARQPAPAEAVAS
T1 sequence (A0A1I4IFH0 1-199): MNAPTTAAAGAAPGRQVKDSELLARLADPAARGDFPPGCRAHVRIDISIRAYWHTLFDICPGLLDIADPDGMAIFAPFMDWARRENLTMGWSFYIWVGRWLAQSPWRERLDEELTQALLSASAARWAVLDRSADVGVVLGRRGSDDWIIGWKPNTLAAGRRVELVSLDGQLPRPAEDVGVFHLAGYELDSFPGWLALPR
Nature of the assay: UV-Vis activity assay, MbnA modification by RrMbnBC. The class given is biochemical, Rugamonas rubra ATCC 43154. The following applies: co-expressed in Escherichia coli. Here is the method: Standard UV-Vis spectra detection was performed on a UV-Vis and Vis instrument (Ultrospec 2100 pro, Biochrom, UK) at room temperature. MtMbnBC and RrMbnBC proteins were adjusted to 5 mg/mL (nearly 100 μM), and VcMbnBC was adjusted to a concentration of 1 mg/mL (nearly 20 μM). The corresponding substrates, VcMbnA, RrMbnA, MtMbnA, and their variants (Supplementary information, Table S5), were dissolved in distilled water and diluted to a working concentration of 5 mM with buffer B. The reaction was initiated when 100 μL MbnBC proteins and 5 μL MbnA peptides were applied to the reaction system, and the reaction was diluted up to 1 mL with buffer B. The mixture was then added into a quartz cuvette and recorded at 20-s intervals for a total of 50 reads at room temperature. For assays using anaerobically prepared MbnBC proteins, the measurements were immediately recorded by adding the anaerobically prepared MbnBC into the reaction system, with peptides pre-mixed in the quartz cuvette. The buffer B used in the assay was O2-saturated at room temperature.
For the stopped-flow UV-Vis spectroscopic analysis, 10 μM MtMbnBC or RrMbnBC or 2 μM VcMbnBC was incubated with 250 μM MbnA peptides at room temperature for 1 h, followed by detection on a UV-Vis and Vis instrument (Nanodrop One, Thermo Scientific, MA). Data were processed by Graphpad Prism version 8.3.

In assay [2] the target is T1, RrMbnBC. Description: Limited proteolysis assay of RrMbnBC with MbnA. Further details: species or system Rugamonas rubra ATCC 43154. The following applies: ~20 µM RrMbnBC incubated with MbnA 1 h at 4 °C, trypsin 30 min on ice, SDS-PAGE. The protocol:
The limited proteolysis assay allows the characterization of the increase in stability of wild-type proteins upon binding to their substrates. The VcMbnBC and RrMbnBC proteins used in this assay were all adjusted to an equal molar concentration of about 20 µM. The RrMbnBC or VcMbnBC complex, by itself or after incubation with the corresponding MbnA peptide for 1 h at 4 °C, was digested by trypsin. After 30 min of incubation on ice, the proteolyzed products were analyzed by SDS-PAGE and visualized by Coomassie blue staining.

Assay [3] relates to VcMbnBC. Nature of the assay: ITC measurement of VcMbnA and variants binding affinity to VcMbnBC. Further details: species or system Vibrio caribbenthicus BAA-2122.
Description: MbnBC and the mutant proteins were all purified using the two-step standard method described above. The purified proteins were adjusted to 1 mg/mL and stored in 25 mM HEPES (pH 8.0) and 100 mM NaCl for ITC measurement. The MbnAs were dissolved and diluted to a working concentration of 2 mM in distilled water. ITC experiments were performed on a Nano ITC (Nano ITC-Low Volume; TA instrument, USA). Settings for the MbnA binding assay were optimized as follows: the titration assay was performed at 16 °C by injecting 2.5 μL MbnA peptide into a full cell containing 190 μL MbnBC or mutant MbnBC proteins every 120 s for a total of 20 injections, and the stirrer syringe stirring speed was set at 250 rpm.
Assay [4] addresses T2, RrMbnBC complex (Rugamonas rubra ATCC 43154).
T2 chain 1: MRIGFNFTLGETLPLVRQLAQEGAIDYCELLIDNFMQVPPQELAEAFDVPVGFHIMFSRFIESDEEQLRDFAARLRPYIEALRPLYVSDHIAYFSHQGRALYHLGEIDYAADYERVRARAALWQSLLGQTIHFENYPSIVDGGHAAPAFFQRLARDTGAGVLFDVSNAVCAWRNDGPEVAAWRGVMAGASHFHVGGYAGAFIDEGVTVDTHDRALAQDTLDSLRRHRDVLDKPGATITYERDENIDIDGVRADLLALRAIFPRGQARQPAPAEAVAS
T2 chain 2: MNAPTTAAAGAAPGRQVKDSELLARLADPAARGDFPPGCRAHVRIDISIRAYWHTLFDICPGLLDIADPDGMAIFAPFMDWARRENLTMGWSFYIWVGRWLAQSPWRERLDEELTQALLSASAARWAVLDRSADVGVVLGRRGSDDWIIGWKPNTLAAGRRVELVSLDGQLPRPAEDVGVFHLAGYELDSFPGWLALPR
Description: ITC.

Assay [5] addresses T3, VcMbnBC complex (Vibrio caribbenthicus BAA-2122).
T3 chain 1: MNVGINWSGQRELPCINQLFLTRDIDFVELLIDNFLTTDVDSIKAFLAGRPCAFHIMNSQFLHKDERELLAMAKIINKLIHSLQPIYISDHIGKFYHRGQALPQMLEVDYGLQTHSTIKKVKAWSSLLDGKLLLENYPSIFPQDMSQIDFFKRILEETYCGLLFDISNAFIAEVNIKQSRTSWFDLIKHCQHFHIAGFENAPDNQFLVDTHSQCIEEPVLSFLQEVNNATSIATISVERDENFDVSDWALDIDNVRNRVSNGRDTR
T3 chain 2: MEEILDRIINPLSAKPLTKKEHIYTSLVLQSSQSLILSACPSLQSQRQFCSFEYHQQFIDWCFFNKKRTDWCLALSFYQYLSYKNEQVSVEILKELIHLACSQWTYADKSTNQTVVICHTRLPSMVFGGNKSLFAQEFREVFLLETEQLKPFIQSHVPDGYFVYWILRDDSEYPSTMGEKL
Description: ITC.

Assay [6] addresses T2, RrMbnBC complex. Nature of the assay: ITC. For orientation: ITC needs no label: the signal is the heat of the interaction.

Like-named read-outs stand apart in the source and are kept apart here. Ends that are not written are not given here. Peptide text beside a SMILES is read from it.

`CC[C@H](C)[C@H](NC(=O)[C@H](CCC(=O)O)NC(=O)[C@@H](NC(=O)[C@H](CCCCN)NC(=O)[C@H](CCCCN)NC(=O)[C@@H](NC(=O)[C@@H](NC(=O)[C@@H](NC(=O)[C@@H](NC(=O)[C@H](CCCCN)NC(=O)[C@@H](N)CCSC)[C@@H](C)CC)C(C)C)[C@@H](C)CC)C(C)C)C(C)C)C(=O)N[C@@H](CCC(N)=O)C(=O)N[C@H](C(=O)N[C@@H](C)C(=O)NCC(=O)N[C@@H](CCCNC(=N)N)C(=O)N[C@H](C(=O)NCC(=O)N[C@@H](CCSC)C(=O)N[C@@H](CCCNC(=N)N)C(=O)N[C@@H](CS)C(=O)N[C@@H](C)C(=O)N[C@@H](CO)C(=O)N[C@@H](CO)C(=O)N[C@@H](CS)C(=O)NCC(=O)N[C@@H](C)C(=O)N[C@@H](CCCCN)C(=O)N[C@@H](CO)C(=O)O)[C@@H](C)O)C(C)C` [RrMbnA] (H-MKIVIVKKVEIQVAGRTGMRCASSCGAKS-OH): the “modification by co-expressed RrMbnBC, UV-Vis absorption at ~335 nm” value in assay [1] is “could be modified”. The “effect on RrMbnBC stability in limited proteolysis” value in assay [2] was “enhance RrMbnBC stability”.

As for MKNDKKVVVKVKDKEM [LP], the “interaction with VcMbnBC (binding assays, in words)” value in assay [3] (ITC binding assays of VcMbnBC with VcMbnA variants) is given as “weak interaction”. For the same molecule, in assay [3] (ITC, 16 °C, 2 mM peptide, 20 injections of 2.5 μL into 190 μL VcMbnBC 1 mg/mL in 25 mM HEPES pH 8.0, 100 mM NaCl, one-site binding, read-out: Kd, VcMbnA or variant/VcMbnBC), the Kd was 63.8 ± 10.5 µM.

B1: VcMbnA peptide (peptide)
peptide: MKNDKKVVVKVKDKEMTCGAFNK
B1: the values for the Kd in assay [4] and in assay [5] were 4.14 µM and 3 µM, respectively.

B2: RrMbnA peptide (peptide)
peptide: MKIVIVKKVEIQVAGRTGMRCASSCGAKS
Take B2: in assay [6], the Kd is 2.7 µM.
